Legend:
Helios = Helios (Homo sapiens, UniProt Q96SW2+Q9UKS7); assay: Helios Cellular Degradation Assay (Helios readout); format: cell-based; parameters: endogenous in cells; host or cells: Jurkat; settings: Jurkat cells, 72 h incubation, Helios-PE antibody staining, flow cytometry; read-out: Helios Jurkat IC50
How it was run: (§1)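 Jurkat cells (80,000/well, RPMI+10% FBS) were treated with compound for 72 h at 37° C. After fixation and permeabilization they were stained with fluorescent antibodies to Helios, Ikaros and Aiolos. Intracellular protein levels were quantified by flow cytometry.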

Ikaros = Ikaros (Homo sapiens, UniProt Q13422+Q96SW2); assay: Helios Cellular Degradation Assay (Ikaros readout); format: cell-based; parameters: endogenous in cells; host or cells: Jurkat; settings: Jurkat cells, 72 h incubation, Ikaros-Alexa488 antibody staining, flow cytometry; read-out: Ikaros Jurkat IC50
How it was run: as §1

Sequence of Helios (Q9UKS7 whole entry): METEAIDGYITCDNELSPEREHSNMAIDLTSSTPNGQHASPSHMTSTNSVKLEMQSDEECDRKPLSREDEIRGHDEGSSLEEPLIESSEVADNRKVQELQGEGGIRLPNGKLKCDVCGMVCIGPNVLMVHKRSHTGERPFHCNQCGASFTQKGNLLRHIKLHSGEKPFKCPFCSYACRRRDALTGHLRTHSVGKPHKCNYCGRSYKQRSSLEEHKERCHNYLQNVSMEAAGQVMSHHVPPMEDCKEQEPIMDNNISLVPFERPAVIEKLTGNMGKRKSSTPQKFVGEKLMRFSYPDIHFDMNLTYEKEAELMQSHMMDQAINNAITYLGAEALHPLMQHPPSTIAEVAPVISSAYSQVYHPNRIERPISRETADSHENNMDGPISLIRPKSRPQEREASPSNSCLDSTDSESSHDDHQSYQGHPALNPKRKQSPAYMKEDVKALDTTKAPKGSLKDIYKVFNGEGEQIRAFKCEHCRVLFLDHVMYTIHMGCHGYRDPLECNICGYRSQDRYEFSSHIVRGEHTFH
Sequence of Helios (Q96SW2 whole entry): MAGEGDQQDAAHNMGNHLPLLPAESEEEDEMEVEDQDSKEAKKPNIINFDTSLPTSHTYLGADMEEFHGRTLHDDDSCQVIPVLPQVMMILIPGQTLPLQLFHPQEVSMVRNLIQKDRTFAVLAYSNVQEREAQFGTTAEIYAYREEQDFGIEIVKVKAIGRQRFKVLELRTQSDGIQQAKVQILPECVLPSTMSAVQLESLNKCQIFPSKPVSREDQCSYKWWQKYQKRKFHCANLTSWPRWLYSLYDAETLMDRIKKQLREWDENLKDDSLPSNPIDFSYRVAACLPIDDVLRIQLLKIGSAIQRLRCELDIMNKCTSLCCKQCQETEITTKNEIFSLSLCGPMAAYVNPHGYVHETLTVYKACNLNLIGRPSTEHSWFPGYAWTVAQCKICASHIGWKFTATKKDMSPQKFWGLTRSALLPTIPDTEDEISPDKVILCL
Sequence of Helios (Q16531 whole entry partner): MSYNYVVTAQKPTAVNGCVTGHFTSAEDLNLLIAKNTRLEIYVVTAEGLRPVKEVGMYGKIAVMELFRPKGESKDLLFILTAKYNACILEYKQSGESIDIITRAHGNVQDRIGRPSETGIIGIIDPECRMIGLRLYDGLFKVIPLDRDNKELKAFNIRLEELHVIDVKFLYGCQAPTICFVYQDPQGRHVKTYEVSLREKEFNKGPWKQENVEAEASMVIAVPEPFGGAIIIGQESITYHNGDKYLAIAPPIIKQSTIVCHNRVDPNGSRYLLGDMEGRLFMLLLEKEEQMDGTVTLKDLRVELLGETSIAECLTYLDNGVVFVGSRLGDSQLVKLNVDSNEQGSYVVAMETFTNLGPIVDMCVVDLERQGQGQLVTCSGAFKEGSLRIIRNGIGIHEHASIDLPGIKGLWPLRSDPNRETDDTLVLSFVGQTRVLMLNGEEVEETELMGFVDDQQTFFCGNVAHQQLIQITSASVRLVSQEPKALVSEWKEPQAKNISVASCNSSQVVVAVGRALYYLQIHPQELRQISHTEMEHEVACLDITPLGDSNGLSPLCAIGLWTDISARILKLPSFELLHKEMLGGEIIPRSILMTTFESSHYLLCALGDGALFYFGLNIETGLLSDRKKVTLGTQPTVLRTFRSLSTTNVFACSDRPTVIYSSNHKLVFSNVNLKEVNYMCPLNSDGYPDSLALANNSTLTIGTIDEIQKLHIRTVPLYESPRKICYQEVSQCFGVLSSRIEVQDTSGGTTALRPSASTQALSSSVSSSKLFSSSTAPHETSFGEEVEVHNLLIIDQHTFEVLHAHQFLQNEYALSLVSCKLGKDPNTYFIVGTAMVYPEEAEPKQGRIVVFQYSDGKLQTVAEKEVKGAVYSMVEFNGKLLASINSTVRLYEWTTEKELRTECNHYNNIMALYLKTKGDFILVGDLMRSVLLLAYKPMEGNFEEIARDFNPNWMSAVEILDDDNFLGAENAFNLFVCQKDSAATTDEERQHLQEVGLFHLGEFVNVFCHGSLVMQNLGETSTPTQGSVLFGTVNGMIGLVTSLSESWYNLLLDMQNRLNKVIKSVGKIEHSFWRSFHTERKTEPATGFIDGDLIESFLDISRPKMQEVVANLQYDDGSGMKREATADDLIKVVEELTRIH
Sequence of Ikaros (Q13422 whole entry): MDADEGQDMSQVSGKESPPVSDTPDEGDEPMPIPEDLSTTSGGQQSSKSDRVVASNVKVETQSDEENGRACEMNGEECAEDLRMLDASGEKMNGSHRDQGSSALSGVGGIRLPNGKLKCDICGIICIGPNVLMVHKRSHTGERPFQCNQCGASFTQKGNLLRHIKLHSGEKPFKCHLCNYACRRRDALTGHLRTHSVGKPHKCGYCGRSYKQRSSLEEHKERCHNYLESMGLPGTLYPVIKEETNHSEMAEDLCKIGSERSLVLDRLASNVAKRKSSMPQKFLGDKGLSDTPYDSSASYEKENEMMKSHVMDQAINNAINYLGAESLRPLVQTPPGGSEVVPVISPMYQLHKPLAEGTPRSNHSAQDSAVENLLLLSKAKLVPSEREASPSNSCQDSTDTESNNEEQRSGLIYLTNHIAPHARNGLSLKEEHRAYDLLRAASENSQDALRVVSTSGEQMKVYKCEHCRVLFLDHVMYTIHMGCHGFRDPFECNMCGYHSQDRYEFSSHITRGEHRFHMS
Sequence of Ikaros (Q96SW2 whole entry): as the sequence (Q96SW2 whole entry) above
Sequence of Ikaros (Q16531 whole entry partner): as the sequence (Q16531 whole entry partner) above

For `CNc1nc(-c2ccc3c(c2)CN(C2CCC(=O)NC2=O)C3=O)cc2ccccc12` (stereo not shown) [Example 50, 3-{5-[1-(Methylamino)isoquinolin-3-yl]-1-oxo-2,3-dihydro-1H-isoindol-2-yl}piperidine-2,6-dione], the DC50 (Helios) was 11 nM and the DC50 (Ikaros) was over 20000 nM.
`COc1nc(-c2ccc3c(c2)CN(C2CCC(=O)NC2=O)C3=O)cc2ccccc12` (stereo not shown) [Example 156, 3-[5-(1-Methoxyisoquinolin-3-yl)-1-oxo-2,3-dihydro-1H-isoindol-2-yl]piperidine-2,6-dione] showed a DC50 (Helios) of 500 nM and a DC50 (Ikaros) of at least 20000 nM.
Compound `O=C1CCC(N2Cc3cc(-c4nccc5c(F)cccc45)ccc3C2=O)C(=O)N1` (stereo not shown) [Example 20, 3-[5-(5-fluoroisoquinolin-1-yl)-1-oxo-2,3-dihydro-1H-isoindol-2-yl]piperidine-2,6-dione] has a DC50 (Helios) of 20 nM and a DC50 (Ikaros) of 34 nM.
For `N#Cc1ccc(-c2ccc3c(c2)CN(C2CCC(=O)NC2=O)C3=O)nc1N` (stereo not shown) [Example 166, 2-amino-6-(2-(2,6-dioxopiperidin-3-yl)-1-oxoisoindolin-5-yl)nicotinonitrile], the DC50 (Helios) was 20 nM and the DC50 (Ikaros) was at least 20000 nM.
In the case of `Nc1c(-c2ccc3c(c2)CN(C2CCC(=O)NC2=O)C3=O)ncc2ccccc12` (stereo not shown) [Example 2, 3-(5-(4-Aminoisoquinolin-3-yl)-1-oxoisoindolin-2-yl)piperidine-2,6-dione], the DC50 (Helios) is reported as 370 nM and the DC50 (Ikaros) is reported as 13700 nM.
`COc1cc(-c2ccc3c(c2)CN(C2CCC(=O)NC2=O)C3=O)nc2ccccc12` (stereo not shown) [Example 12, 3-[5-(4-methoxyquinolin-2-yl)-1-oxo-2,3-dihydro-1H-isoindol-2-yl]piperidine-2,6-dione] gave a DC50 (Helios) of 38 nM and a DC50 (Ikaros) of over 20000 nM.
Work on `Nc1ccc(Br)c(-c2ccc3c(c2)CN(C2CCC(=O)NC2=O)C3=O)n1` (stereo not shown) [Example 101, 3-(5-(6-amino-3-bromopyridin-2-yl)-1-oxoisoindolin-2-yl)piperidine-2,6-dione] yielded a DC50 (Helios) of 470 nM and a DC50 (Ikaros) of at least 20000 nM.
`O=C1CCC(N2Cc3cc(-c4cc5ccccc5cn4)ccc3C2=O)C(=O)N1` (stereo not shown) [Example 67, 3-[5-(isoquinolin-3-yl)-1-oxo-2,3-dihydro-1H-isoindol-2-yl]piperidine-2,6-dione] gave a DC50 (Helios) of 42 nM and a DC50 (Ikaros) of 3000 nM.
Compound `O=C1CCC(N2Cc3cc(-c4ccc5c(n4)NCCO5)ccc3C2=O)C(=O)N1` (stereo not shown) [Example 141, 3-(5-(3,4-dihydro-2H-pyrido[3,2-b][1,4]oxazin-6-yl)-1-oxoisoindolin-2-yl)piperidine-2,6-dione] has a DC50 (Helios) of 80 nM and a DC50 (Ikaros) of at least 20000 nM.
Work on `CNc1cc(C)cc(-c2ccc3c(c2)CN(C2CCC(=O)NC2=O)C3=O)n1` (stereo not shown) [Example 187, 3-(5-(4-Methyl-6-(methylamino)pyridin-2-yl)-1-oxoisoindolin-2-yl)piperidine-2,6-dione] yielded a DC50 (Helios) of 10 nM and a DC50 (Ikaros) of at least 10000 nM.
In the case of `Nc1cc2ccccc2c(-c2ccc3c(c2)CN([C@H]2CCC(=O)NC2=O)C3=O)n1` [Example 123, (S)-3-(5-(3-aminoisoquinolin-1-yl)-1-oxoisoindolin-2-yl)piperidine-2,6-dione], the DC50 (Helios) is reported as 80 nM and the DC50 (Ikaros) is reported as at least 20000 nM.
Work on `Nc1nc(-c2ccccc2)nc(-c2ccc3c(c2)CN(C2CCC(=O)NC2=O)C3=O)n1` (stereo not shown) [Example 73, 3-(5-(4-amino-6-phenyl-1,3,5-triazin-2-yl)-1-oxoisoindolin-2-yl)piperidine-2,6-dione] yielded a DC50 (Helios) of 67 nM and a DC50 (Ikaros) of 450 nM.
With `CCn1ncc2c(-c3ccc4c(c3)CN(C3CCC(=O)NC3=O)C4=O)nc(N)nc21` (stereo not shown) [Example 45, 3-(5-{6-amino-1-ethyl-1H-pyrazolo[3,4-d]pyrimidin-4-yl}-1-oxo-2,3-dihydro-1H-isoindol-2-yl)piperidine-2,6-dione] the DC50 (Helios) was 430 nM and the DC50 (Ikaros) was over 20000 nM.
`O=C1CCC(N2Cc3cc(-c4nccc5cccnc45)ccc3C2=O)C(=O)N1` (stereo not shown) [Example 64, 3-[5-(1,7-naphthyridin-8-yl)-1-oxo-2,3-dihydro-1H-isoindol-2-yl]piperidine-2,6-dione] gave a DC50 (Helios) of over 20000 nM and a DC50 (Ikaros) of over 20000 nM.
`O=C1CCC(N2Cc3cc(-c4cc5c(cn4)NCC5)ccc3C2=O)C(=O)N1` (stereo not shown) [Example 113, 3-(5-(2,3-dihydro-1H-pyrrolo[2,3-c]pyridin-5-yl)-1-oxoisoindolin-2-yl)piperidine-2,6-dione] showed a DC50 (Helios) of 50 nM and a DC50 (Ikaros) of at least 10000 nM.
With `O=C1CCC(N2Cc3cc(-c4cc5ccccc5c(C5CC5)n4)ccc3C2=O)C(=O)N1` (stereo not shown) [Example 89, 3-(5-(1-cyclopropylisoquinolin-3-yl)-1-oxoisoindolin-2-yl)piperidine-2,6-dione] the DC50 (Helios) was 2200 nM and the DC50 (Ikaros) was at least 20000 nM.
In the case of `N#Cc1cc(C2CC2)c(-c2ccc3c(c2)CN(C2CCC(=O)NC2=O)C3=O)nc1N` (stereo not shown) [Example 183, 2-amino-5-cyclopropyl-6-(2-(2,6-dioxopiperidin-3-yl)-1-oxoisoindolin-5-yl) nicotinonitrile], the DC50 (Helios) is reported as 50 nM and the DC50 (Ikaros) is reported as at least 10000 nM.
Compound `Nc1cc(C(F)(F)F)cc(-c2ccc3c(c2)CN(C2CCC(=O)NC2=O)C3=O)n1` (stereo not shown) [Example 163, 3-(5-(6-amino-4-(trifluoromethyl)pyridin-2-yl)-1-oxoisoindolin-2-yl)piperidine-2,6-dione] has a DC50 (Helios) of 90 nM and a DC50 (Ikaros) of at least 20000 nM.
For `O=C1CCC(N2Cc3cc(-c4nccc(-c5ccccn5)n4)ccc3C2=O)C(=O)N1` (stereo not shown) [Example 75, 3-(1-oxo-5-(4-(pyridin-2-yl)pyrimidin-2-yl)isoindolin-2-yl)piperidine-2,6-dione], the DC50 (Helios) was 1200 nM and the DC50 (Ikaros) was over 20000 nM.
`Cc1cc(C)nc(-c2ccc3c(c2)CN(C2CCC(=O)NC2=O)C3=O)c1` (stereo not shown) [Example 144, 3-(5-(4,6-dimethylpyridin-2-yl)-1-oxoisoindolin-2-yl)piperidine-2,6-dione] was tested, and the DC50 (Helios) was 83 nM and the DC50 (Ikaros) was at least 20000 nM.
`O=C1CCC(N2Cc3cc(-c4nc5ccccc5nc4O)ccc3C2=O)C(=O)N1` (stereo not shown) [Example 96, 3-(5-(3-hydroxyquinoxalin-2-yl)-1-oxoisoindolin-2-yl)piperidine-2,6-dione] showed a DC50 (Helios) of 200 nM and a DC50 (Ikaros) of at least 20000 nM.
`CC(C)c1nc2ccccc2nc1-c1ccc2c(c1)CN(C1CCC(=O)NC1=O)C2=O` (stereo not shown) [Example 98, 3-(5-(3-isopropylquinoxalin-2-yl)-1-oxoisoindolin-2-yl)piperidine-2,6-dione] showed a DC50 (Helios) of 860 nM and a DC50 (Ikaros) of at least 20000 nM.
`O=Cc1cc2c(-c3ccc4c(c3)CN(C3CCC(=O)NC3=O)C4=O)nccc2s1` (stereo not shown) [Example 60, 4-[2-(2,6-dioxopiperidin-3-yl)-1-oxo-2,3-dihydro-1H-isoindol-5-yl]thieno[3,2-c]pyridine-2-carbaldehyde] showed a DC50 (Helios) of 15 nM and a DC50 (Ikaros) of 160 nM.
In the case of `CN(C)c1cnc(-c2ccc3c(c2)CN(C2CCC(=O)NC2=O)C3=O)c2cc(Cl)ccc12` (stereo not shown) [Example 129, 3-{5-[7-chloro-4-(dimethylamino)isoquinolin-1-yl]-1-oxo-2,3-dihydro-1H-isoindol-2-yl}piperidine-2,6-dione], the DC50 (Helios) is reported as 10 nM and the DC50 (Ikaros) is reported as 90 nM.
With `N#Cc1cc(C2CC2)c(N)nc1-c1ccc2c(c1)CN(C1CCC(=O)NC1=O)C2=O` (stereo not shown) [Example 182, 6-amino-5-cyclopropyl-2-(2-(2,6-dioxopiperidin-3-yl)-1-oxoisoindolin-5-yl) nicotinonitrile] the DC50 (Helios) was 70 nM and the DC50 (Ikaros) was at least 10000 nM.
Work on `O=C1CCC(N2Cc3cc(-c4ccc5ncccc5n4)ccc3C2=O)C(=O)N1` (stereo not shown) [Example 21, 3-[5-(1,5-naphthyridin-2-yl)-1-oxo-2,3-dihydro-1H-isoindol-2-yl]piperidine-2,6-dione] yielded a DC50 (Helios) of 37 nM and a DC50 (Ikaros) of over 20000 nM.
`N#Cc1ccnnc1-c1ccc2c(c1)CN(C1CCC(=O)NC1=O)C2=O` (stereo not shown) [Example 76, 3-(2-(2,6-dioxopiperidin-3-yl)-1-oxoisoindolin-5-yl)pyridazine-4-carbonitrile] showed a DC50 (Helios) of over 20000 nM and a DC50 (Ikaros) of over 20000 nM.
Compound `O=C1CCC(N2Cc3cc(-c4ccc5c(n4)NCCN5)ccc3C2=O)C(=O)N1` (stereo not shown) [Example 118, 3-(1-oxo-5-(1,2,3,4-tetrahydropyrido[2,3-b]pyrazin-6-yl)isoindolin-2-yl)piperidine-2,6-dione] has a DC50 (Helios) of 180 nM and a DC50 (Ikaros) of at least 10000 nM.
`COc1ccc2c(-c3ccc4c(c3)CN(C3CCC(=O)NC3=O)C4=O)nc(OC)cc2c1` (stereo not shown) [Example 58, 3-[5-(3,6-dimethoxyisoquinolin-1-yl)-1-oxo-2,3-dihydro-1H-isoindol-2-yl]piperidine-2,6-dione] showed a DC50 (Helios) of 1 nM and a DC50 (Ikaros) of 9 nM.
Work on `O=C1CCC(N2Cc3cc(-c4ncnc5ccccc45)ccc3C2=O)C(=O)N1` (stereo not shown) [Example 91, 3-(1-oxo-5-(quinazolin-4-yl)isoindolin-2-yl)piperidine-2,6-dione] yielded a DC50 (Helios) of 210 nM and a DC50 (Ikaros) of at least 20000 nM.
In the case of `COc1cc(C)cc(-c2ccc3c(c2)CN(C2CCC(=O)NC2=O)C3=O)n1` (stereo not shown) [Example 146, 3-(5-(6-methoxy-4-methylpyridin-2-yl)-1-oxoisoindolin-2-yl)piperidine-2,6-dione], the DC50 (Helios) is reported as 190 nM and the DC50 (Ikaros) is reported as at least 20000 nM.
For `O=C1CCC(N2Cc3cc(-c4cc(-c5ccccc5)ccn4)ccc3C2=O)C(=O)N1` (stereo not shown) [Example 74, 3-(1-oxo-5-(4-phenylpyridin-2-yl)isoindolin-2-yl)piperidine-2,6-dione], the DC50 (Helios) was 32 nM and the DC50 (Ikaros) was 34 nM.
`O=C1CCC(N2Cc3cc(-c4ccc5ccc(Cl)cc5n4)ccc3C2=O)C(=O)N1` (stereo not shown) [Example 28, 3-[5-(7-chloroquinolin-2-yl)-1-oxo-2,3-dihydro-1H-isoindol-2-yl]piperidine-2,6-dione] showed a DC50 (Helios) of 57 nM and a DC50 (Ikaros) of over 20000 nM.
`O=C1CCC(N2Cc3cc(-c4nc5ccccc5nc4-c4ccccc4)ccc3C2=O)C(=O)N1` (stereo not shown) [Example 99, 3-(1-oxo-5-(3-phenylquinoxalin-2-yl)isoindolin-2-yl)piperidine-2,6-dione] gave a DC50 (Helios) of 340 nM and a DC50 (Ikaros) of at least 20000 nM.
Work on `CC(=O)Nc1ccc2c(-c3ccc4c(c3)CN(C3CCC(=O)NC3=O)C4=O)nccc2c1` (stereo not shown) [Example 134, N-{1-[2-(2,6-dioxopiperidin-3-yl)-1-oxo-2,3-dihydro-1H-isoindol-5-yl]isoquinolin-6-yl}acetamide] yielded a DC50 (Helios) of 100 nM and a DC50 (Ikaros) of at least 20000 nM.

Reference: patent US12570671B2 (BRISTOL-MYERS SQUIBB COMPANY, priority 2020, dated 2026)
